In PMC5218480 (PLoS ONE, 2017):

System: MV-4-11 cells
Assay: Gene expression microarray analysis (Affymetrix PrimeView) and GSEA
Assay type: cell-based, human
Design: RFU PODN (11730768_x_at) / Fold change /veh PODN (11730768_x_at) / RFU LINC00158 (11744669_a_at) / Fold change /veh LINC00158 (11744669_a_at) / RFU DUSP10 (11751237_a_at) / Fold change /veh DUSP10 (11751237_a_at) / RFU ID3 (11757404_x_at) / Fold change /veh ID3 (11757404_x_at) / RFU PLEKHG5 (11737974_s_at) / Fold change /veh PLEKHG5 (11737974_s_at) / RFU LRRC4B (11730491_at) / Fold change /veh LRRC4B (11730491_at) / RFU GIMAP4 (11747438_a_at) / Fold change /veh GIMAP4 (11747438_a_at) / RFU KRT8 (11758183_x_at) / Fold change /veh KRT8 (11758183_x_at) / RFU CNN1 (11734310_a_at) / Fold change /veh CNN1 (11734310_a_at) / RFU VPS37D (11726825_at) / Fold change /veh VPS37D (11726825_at) / RFU C10orf10 (11716522_x_at) / Fold change /veh C10orf10 (11716522_x_at) / RFU KIR2DL2 /// KIR2DL4 /// KIR2DL5A /// KIR2DL5B /// KIR2DS1 /// KIR2DS2 /// KIR2DS3 /// KIR2DS4 /// KIR3DL3 /// KIR3DL3 /// KIR3DS1 (11738374_at) / Fold change /veh KIR2DL2 /// KIR2DL4 /// KIR2DL5A /// KIR2DL5B /// KIR2DS1 /// KIR2DS2 /// KIR2DS3 /// KIR2DS4 /// KIR3DL3 /// KIR3DL3 /// KIR3DS1 (11738374_at) / RFU C1QL1 (11718748_at) / Fold change /veh C1QL1 (11718748_at) / RFU TMPRSS4 (11747572_a_at) / Fold change /veh TMPRSS4 (11747572_a_at) / RFU HAMP (11756126_x_at) / Fold change /veh HAMP (11756126_x_at) / RFU RNFT2 (11725882_a_at) / Fold change /veh RNFT2 (11725882_a_at) / RFU NR4A2 (11747474_a_at) / Fold change /veh NR4A2 (11747474_a_at) / RFU ABCC12 (11746883_a_at) / Fold change /veh ABCC12 (11746883_a_at) / RFU TMEM136 (11760407_x_at) / Fold change /veh TMEM136 (11760407_x_at) / RFU CLDN22 /// WWC2 (11732394_at) / Fold change /veh CLDN22 /// WWC2 (11732394_at) / RFU HLA-DPB1 (11760878_x_at) / Fold change /veh HLA-DPB1 (11760878_x_at) / RFU SPINT1 (11716480_a_at) / Fold change /veh SPINT1 (11716480_a_at) / RFU GAP43 (11754022_s_at) / Fold change /veh GAP43 (11754022_s_at) / RFU A4GNT (11735810_at) / Fold change /veh A4GNT (11735810_at) / RFU PRB3 (11715151_x_at) / Fold change /veh PRB3 (11715151_x_at) / RFU TUBB4B (11761932_at) / Fold change /veh TUBB4B (11761932_at) / RFU CAPN14 (11732068_a_at) / Fold change /veh CAPN14 (11732068_a_at) / RFU TMCC2 (11721928_a_at) / Fold change /veh TMCC2 (11721928_a_at) / RFU IRGQ (11745062_a_at) / Fold change /veh IRGQ (11745062_a_at) / RFU FAM174B (11720279_a_at) / Fold change /veh FAM174B (11720279_a_at) / RFU TMPRSS4 (11748680_a_at) / Fold change /veh TMPRSS4 (11748680_a_at) / RFU FAM212B (11763350_a_at) / Fold change /veh FAM212B (11763350_a_at) / RFU PLEKHG5 (11743358_a_at) / Fold change /veh PLEKHG5 (11743358_a_at) / RFU ZSCAN30 (11745921_a_at) / Fold change /veh ZSCAN30 (11745921_a_at) / RFU CMKLR1 (11741424_a_at) / Fold change /veh CMKLR1 (11741424_a_at) / RFU LOC101060620 /// MAPK8IP1 (11723275_at) / Fold change /veh LOC101060620 /// MAPK8IP1 (11723275_at) / RFU SPTSSB (11747773_x_at) / Fold change /veh SPTSSB (11747773_x_at) / RFU PRSS12 (11739890_at) / Fold change /veh PRSS12 (11739890_at) / RFU BIN1 (11741810_x_at) / Fold change /veh BIN1 (11741810_x_at) / RFU WNT11 (11732464_a_at) / Fold change /veh WNT11 (11732464_a_at) / RFU C10orf10 (11716521_a_at) / Fold change /veh C10orf10 (11716521_a_at) / RFU C5orf56 (11738089_at) / Fold change /veh C5orf56 (11738089_at) / RFU CYB561 (11721691_x_at) / Fold change /veh CYB561 (11721691_x_at) / RFU ANKRD19P (11752326_a_at) / Fold change /veh ANKRD19P (11752326_a_at) / RFU OR2T12 /// OR2T33 /// OR2T8 (11738714_s_at) / Fold change /veh OR2T12 /// OR2T33 /// OR2T8 (11738714_s_at) / RFU VCAN (11748164_a_at) / Fold change /veh VCAN (11748164_a_at) / RFU JSRP1 (11732532_at) / Fold change /veh JSRP1 (11732532_at) / RFU KRTAP10-11 (11738290_x_at) / Fold change /veh KRTAP10-11 (11738290_x_at) / RFU MYO3A (11730013_a_at) / Fold change /veh MYO3A (11730013_a_at) / RFU EBF3 (11725865_a_at) / Fold change /veh EBF3 (11725865_a_at) / RFU CAMK2N1 (11719241_x_at) / Fold change /veh CAMK2N1 (11719241_x_at) / RFU C5orf56 (11738088_a_at) / Fold change /veh C5orf56 (11738088_a_at) / RFU OLFML3 (11715873_a_at) / Fold change /veh OLFML3 (11715873_a_at) / RFU LOC100653217 /// NTM (11731650_a_at) / Fold change /veh LOC100653217 /// NTM (11731650_a_at) / RFU MAPK11 (11762145_a_at) / Fold change /veh MAPK11 (11762145_a_at) / RFU FIZ1 (11724087_x_at) / Fold change /veh FIZ1 (11724087_x_at) / RFU OASL (11726364_x_at) / Fold change /veh OASL (11726364_x_at) / RFU SOX15 (11748057_x_at) / Fold change /veh SOX15 (11748057_x_at) / RFU CD79A (11719716_a_at) / Fold change /veh CD79A (11719716_a_at) / RFU HIST1H1D (11736915_at) / Fold change /veh HIST1H1D (11736915_at) / RFU CASKIN2 (11723855_a_at) / Fold change /veh CASKIN2 (11723855_a_at) / RFU LOC730098 (11760151_x_at) / Fold change /veh LOC730098 (11760151_x_at) / RFU OR4N2 (11742367_at) / Fold change /veh OR4N2 (11742367_at) / RFU PRRT2 (11749266_a_at) / Fold change /veh PRRT2 (11749266_a_at) / RFU SNX32 (11753110_a_at) / Fold change /veh SNX32 (11753110_a_at) / RFU CDHR5 (11726645_a_at) / Fold change /veh CDHR5 (11726645_a_at) / RFU RCAN1 (11760418_a_at) / Fold change /veh RCAN1 (11760418_a_at) / RFU FAM167A (11723789_a_at) / Fold change /veh FAM167A (11723789_a_at) / RFU FAM26E (11764081_at) / Fold change /veh FAM26E (11764081_at) / RFU ISYNA1 (11749810_s_at) / Fold change /veh ISYNA1 (11749810_s_at) / RFU ACY1 (11761880_at) / Fold change /veh ACY1 (11761880_at) / RFU 11764098_at / Fold change /veh 11764098_at / RFU SAMD14 (11745864_x_at) / Fold change /veh SAMD14 (11745864_x_at) / RFU NPB (11741838_a_at) / Fold change /veh NPB (11741838_a_at) / RFU TMPRSS6 (11731388_a_at) / Fold change /veh TMPRSS6 (11731388_a_at) / RFU KRTAP10-2 (11738614_at) / Fold change /veh KRTAP10-2 (11738614_at) / RFU ARHGAP8 /// PRR5-ARHGAP8 (11727945_x_at) / Fold change /veh ARHGAP8 /// PRR5-ARHGAP8 (11727945_x_at) / RFU KRTAP5-7 /// NADSYN1 (11734609_at) / Fold change /veh KRTAP5-7 /// NADSYN1 (11734609_at) / RFU RASL12 (11751679_a_at) / Fold change /veh RASL12 (11751679_a_at) / RFU CDKN2B (11736163_a_at) / Fold change /veh CDKN2B (11736163_a_at) / RFU PRF1 (11729649_at) / Fold change /veh PRF1 (11729649_at) / RFU, ZNF638 /// ZNF638-IT1 / Fold change vs veh, ZNF638 /// ZNF638-IT1 / RFU, PANK3 / Fold change vs veh, PANK3 / RFU, SH3YL1 / Fold change vs veh, SH3YL1 / RFU, ZEB2 / Fold change vs veh, ZEB2 / RFU, NRIP1 / Fold change vs veh, NRIP1 / RFU, PTTG1IP / Fold change vs veh, PTTG1IP / RFU, CAPN2 / Fold change vs veh, CAPN2 / RFU, MED14 / Fold change vs veh, MED14 / RFU, SNORA58 / Fold change vs veh, SNORA58 / RFU, C1orf63 / Fold change vs veh, C1orf63 / RFU, LRRFIP1 / Fold change vs veh, LRRFIP1 / RFU, NDUFAF7 / Fold change vs veh, NDUFAF7 / RFU, SLC12A2 / Fold change vs veh, SLC12A2 / RFU, IBTK / Fold change vs veh, IBTK / RFU, ESF1 / Fold change vs veh, ESF1 / Fold change vs veh, TMEM50B / RFU, TAOK1 / Fold change vs veh, TAOK1 / RFU, ACBD3 / Fold change vs veh, ACBD3 / RFU, TMA16 / Fold change vs veh, TMA16 / RFU, RWDD3 / Fold change vs veh, RWDD3 / RFU, BCAT1 / Fold change vs veh, BCAT1 / RFU, EDEM3 / Fold change vs veh, EDEM3 / RFU, TMEM33 / Fold change vs veh, TMEM33 / RFU, WDR75 / Fold change vs veh, WDR75 / RFU, AHCTF1 / Fold change vs veh, AHCTF1 / RFU, TFRC / Fold change vs veh, TFRC / RFU, ZDHHC17 / Fold change vs veh, ZDHHC17 / RFU, NOM1 / Fold change vs veh, NOM1 / RFU, ARL8B / Fold change vs veh, ARL8B / RFU, ZBTB11 / Fold change vs veh, ZBTB11 / RFU, TAMM41 / Fold change vs veh, TAMM41 / RFU, KIAA1704 /// LOC100996395 / Fold change vs veh, KIAA1704 /// LOC100996395 / RFU, ING1 / Fold change vs veh, ING1 / RFU, TRMT61B / Fold change vs veh, TRMT61B / RFU, FUBP3 / Fold change vs veh, FUBP3 / RFU, TP53 / Fold change vs veh, TP53 / RFU, TNKS2 / Fold change vs veh, TNKS2 / RFU, ZFP14 / Fold change vs veh, ZFP14 / RFU, ACTR2 / Fold change vs veh, ACTR2 / RFU, PPP3R1 / Fold change vs veh, PPP3R1 / RFU, PIK3R1 / Fold change vs veh, PIK3R1 / RFU, HNRNPA1 / Fold change vs veh, HNRNPA1 / RFU, RNF170 / Fold change vs veh, RNF170 / RFU, ZNF28 / Fold change vs veh, ZNF28 / RFU, RNGTT / Fold change vs veh, RNGTT / RFU, OGT / Fold change vs veh, OGT / RFU, BRD1 / Fold change vs veh, BRD1 / RFU, MARS / Fold change vs veh, MARS / RFU, ZNF655 / Fold change vs veh, ZNF655 / RFU, FAHD1 / Fold change vs veh, FAHD1 / RFU, BDP1 / Fold change vs veh, BDP1 / RFU, LRRCC1 / Fold change vs veh, LRRCC1 / RFU, ARID1A / Fold change vs veh, ARID1A / RFU, ZNF146 / Fold change vs veh, ZNF146 / RFU, ZNF330 / Fold change vs veh, ZNF330 / RFU, GPN3 / Fold change vs veh, GPN3 / RFU, C9orf123 / Fold change vs veh, C9orf123 / RFU, N4BP2L2 / Fold change vs veh, N4BP2L2 / RFU, ARFIP1 / Fold change vs veh, ARFIP1 / RFU, FAM179B / Fold change vs veh, FAM179B / RFU, BCL10 / Fold change vs veh, BCL10 / RFU, UHRF1BP1L / Fold change vs veh, UHRF1BP1L / RFU, BET1 / Fold change vs veh, BET1 / RFU, CNOT2 / Fold change vs veh, CNOT2 / RFU, ZNF268 / Fold change vs veh, ZNF268 / Fold change vs veh, ZNF507 / RFU, DGCR2 / Fold change vs veh, DGCR2 / RFU, WDSUB1 / Fold change vs veh, WDSUB1 / Fold change vs veh, HSP90B1 /// MIR3652 / RFU, ADSS / Fold change vs veh, ADSS / RFU, GK / Fold change vs veh, GK / RFU, ZNF148 / Fold change vs veh, ZNF148 / RFU, TAF9 / Fold change vs veh, TAF9 / RFU, SLC1A5 / Fold change vs veh, SLC1A5 / RFU, SLMO2 / Fold change vs veh, SLMO2 / RFU, ABCC4 / Fold change vs veh, ABCC4 / RFU, LOC101060439 /// RAP1B / Fold change vs veh, LOC101060439 /// RAP1B / RFU, RFX7 / Fold change vs veh, RFX7 / RFU, GTPBP10 / Fold change vs veh, GTPBP10 / RFU, CNEP1R1 / Fold change vs veh, CNEP1R1 / RFU, BIVM-ERCC5 /// ERCC5 / Fold change vs veh, BIVM-ERCC5 /// ERCC5 / RFU, ILF3 / Fold change vs veh, ILF3 / RFU 11762660_at / Fold change /veh 11762660_at / RFU VCAN (11757783_s_at) / Fold change /veh VCAN (11757783_s_at) / RFU DDX43 (11728927_at) / Fold change /veh DDX43 (11728927_at) / RFU KRT8 (11758188_x_at) / Fold change /veh KRT8 (11758188_x_at) / RFU NKD1 (11759106_at) / Fold change /veh NKD1 (11759106_at) / RFU SRD5A1 (11742802_a_at) / Fold change /veh SRD5A1 (11742802_a_at) / RFU TPSAB1 /// TPSB2 (11721975_s_at) / Fold change /veh TPSAB1 /// TPSB2 (11721975_s_at) / RFU GSTM3 (11746129_a_at) / Fold change /veh GSTM3 (11746129_a_at) / RFU IL23R (11737362_x_at) / Fold change /veh IL23R (11737362_x_at) / RFU TMEM51 (11727254_a_at) / Fold change /veh TMEM51 (11727254_a_at) / RFU PIWIL2 (11732686_x_at) / Fold change /veh PIWIL2 (11732686_x_at) / RFU ORM1 (11744905_x_at) / Fold change /veh ORM1 (11744905_x_at) / RFU CCDC152 (11743942_at) / Fold change /veh CCDC152 (11743942_at) / RFU ECM1 (11717891_a_at) / Fold change /veh ECM1 (11717891_a_at) / RFU IL23R (11748794_a_at) / Fold change /veh IL23R (11748794_a_at) / RFU TNFAIP8L3 (11732012_x_at) / Fold change /veh TNFAIP8L3 (11732012_x_at) / RFU MBOAT4 (11741988_at) / Fold change /veh MBOAT4 (11741988_at) / RFU 11764193_at / Fold change /veh 11764193_at / RFU TMEM53 (11763286_at) / Fold change /veh TMEM53 (11763286_at) / RFU MAGEB2 (11727129_at) / Fold change /veh MAGEB2 (11727129_at) / RFU TMEM200A (11744735_a_at) / Fold change /veh TMEM200A (11744735_a_at) / RFU CCDC152 (11751479_a_at) / Fold change /veh CCDC152 (11751479_a_at) / RFU FAM211A (11726209_a_at) / Fold change /veh FAM211A (11726209_a_at) / RFU RGS16 (11746705_a_at) / Fold change /veh RGS16 (11746705_a_at) / RFU VCAN (11755009_s_at) / Fold change /veh VCAN (11755009_s_at) / RFU RHOB (11743442_s_at) / Fold change /veh RHOB (11743442_s_at) / RFU RGS16 (11720943_a_at) / Fold change /veh RGS16 (11720943_a_at) / RFU RGS16 (11720944_at) / Fold change /veh RGS16 (11720944_at) / RFU, VPS4B / Fold change vs veh, VPS4B / RFU, CREB1 / Fold change vs veh, CREB1 / RFU, DNAJC13 / Fold change vs veh, DNAJC13 / RFU, GNAQ / Fold change vs veh, GNAQ / RFU, CDK5R1 / Fold change vs veh, CDK5R1 / RFU, ZRANB3 / Fold change vs veh, ZRANB3 / RFU, CUL4A / Fold change vs veh, CUL4A / RFU, CCNY / Fold change vs veh, CCNY / RFU, UFL1 / Fold change vs veh, UFL1 / RFU, COG3 / Fold change vs veh, COG3 / RFU, DIAPH2 / Fold change vs veh, DIAPH2 / RFU, SKA2 / Fold change vs veh, SKA2 / RFU, AFF3 / Fold change vs veh, AFF3 / RFU, LMF1 / Fold change vs veh, LMF1 / RFU, IPO11 / Fold change vs veh, IPO11 / RFU, DFFB / Fold change vs veh, DFFB / RFU, FOXP1 / Fold change vs veh, FOXP1 / RFU, CARD8 / Fold change vs veh, CARD8 / RFU, STRN3 / Fold change vs veh, STRN3 / RFU, ADK / Fold change vs veh, ADK / RFU, RASSF2 / Fold change vs veh, RASSF2 / RFU, WIPF1 / Fold change vs veh, WIPF1 / RFU, LARP1B / Fold change vs veh, LARP1B / RFU, RASA1 / Fold change vs veh, RASA1 / RFU, RB1 / Fold change vs veh, RB1 / RFU, PPFIA1 / Fold change vs veh, PPFIA1 / RFU, MAT2A / Fold change vs veh, MAT2A / RFU, CCT5 / Fold change vs veh, CCT5 / RFU, WDR92 / Fold change vs veh, WDR92 / RFU, CUX1 / Fold change vs veh, CUX1 / RFU, TTC7A / Fold change vs veh, TTC7A / RFU, TMEM135 / Fold change vs veh, TMEM135 / RFU, DEPTOR / Fold change vs veh, DEPTOR / RFU, CPM / Fold change vs veh, CPM / RFU, DNAJB6 / Fold change vs veh, DNAJB6 / RFU, CACNA2D3 / Fold change vs veh, CACNA2D3 / RFU, DTX4 / Fold change vs veh, DTX4 / RFU, TFCP2 / Fold change vs veh, TFCP2 / RFU, GMCL1 /// GMCL1P1 / Fold change vs veh, GMCL1 /// GMCL1P1 / RFU, AEBP2 / Fold change vs veh, AEBP2 / RFU, SNHG1 /// SNORD22 /// SNORD25 /// SNORD26 /// SNORD27 /// SNORD28 /// SNORD29 /// SNORD31 / Fold change vs veh, SNHG1 /// SNORD22 /// SNORD25 /// SNORD26 /// SNORD27 /// SNORD28 /// SNORD29 /// SNORD31 / Fold change (Aza/veh), C12orf56 (ProbeSet 11735607_a_at) / Fold change (ACY-1035/veh), C12orf56 (ProbeSet 11735607_a_at) / Fold change (Aza/veh), FGFR1OP (ProbeSet 11751329_s_at) / Fold change (ACY-1035/veh), FGFR1OP (ProbeSet 11751329_s_at) / Fold change (Aza/veh), VPS36 (ProbeSet 11739960_a_at) / Fold change (ACY-1035/veh), VPS36 (ProbeSet 11739960_a_at) / RFU SYPL1 (11715823_x_at) / Fold change /veh SYPL1 (11715823_x_at) / RFU IGFBP7 (11715501_s_at) / Fold change /veh IGFBP7 (11715501_s_at) / RFU REEP3 (11722064_at) / Fold change /veh REEP3 (11722064_at) / RFU IGLL1 (11728026_x_at) / Fold change /veh IGLL1 (11728026_x_at): dose or concentration left out as unconfirmed
Conditions: ProbeSet 11724526_at; LIST B

With Nc1ccc(-c2cccs2)cc1NC(=O)c1ccc2c(c1)cc(C1CC1)n2CCN1CCOCC1 [ACY-1035] the “RFU, FAHD1” value was 149.86 RFU.
